According to patent US20120323164A1, “PHOTODYNAMIC THERAPY WITH PHTHALOCYANINES AND RADICAL SOURCES” (Case Western Reserve University, priority 2011, published 2012):
Several values for one entry are separate records, joined by “and”; a condition that tells them apart may be missing. Equal entries are not always repeated.

Legend:
[1] = Qualitative solubility in organic solvents
[2] = Photodecomposition of phthalocyanines in toluene under white light, no added radical source; details: for decomp (%): toluene ~9 μM, white light 1.2 kJ/s/m^2
Experimental: The distance between the cuvette face and the lamp filament was 30 cm. Determination of the beam intensity at the cuvette face was made with a powermeter (Powermax, pm10, Coherent, Santa Clara, Calif.). The beam intensity was checked before each measurement.
Solutions for the photodecomposition experiments were prepared as follows. […] This assumption was justified on the basis that all of the silicon phthalocyanines studied contained simple, unsubstituted phthalocyanine rings. The extinction coefficients of the aluminum phthalocyanines were assumed to be 2.3×10^5, the extinction coefficient of AlPcOSi(CH3)2(CH2)3N(CH3)2, Pc 1.
The absorbance of the Q band of the solution, A, was determined with a spectrophotometer (Lambda 25, Perkin Elmer, Shelton, Conn.; fused silica cuvettes, 1.00 cm, 3.5 mL, Fisher Scientific). From A, ε, the cuvette path length, b, and Beer's law, the concentration of the solution, c, was determined. The solution was then diluted with toluene to a concentration of 9.2 μM. To verify that this was the concentration of the solution, its absorbance was measured again.
In a typical determination, the solution (3.00 mL) was placed in a cuvette (1.00 cm, 3.5 mL, Fisher Scientific, Pittsburgh, Pa.) and its absorbance was measured with the spectrometer (Lambda 25) before irradiation and at 2, 4, 6 and 8 h.
where A0 is the absorbance of the solution at time 0, and At is the absorbance at time t.

[3] = time 2 h, radiation 86 kJ/mol × 10^−6, no added alkene
[4] = time 4 h, radiation 172 kJ/mol × 10^−6, no added alkene
[5] = time 6 h, radiation 258 kJ/mol × 10^−6, no added alkene
[6] = time 8 h, radiation 344 kJ/mol × 10^−6, no added alkene

Row | Compound | solubility (in words) [1] | decomp (%) ([2]; time 0 h, no added alkene) | decomp (%) [2, 3] | decomp (%) [2, 4] | decomp (%) [2, 5] | decomp (%) [2, 6] | photostability (in words) ([2]; white light, toluene, no added alkene) | stability in the dark ([2]; in the dark)
1 | CC/C=C\C/C=C\C/C=C\C/C=C\C/C=C\C/C=C\CCC(=O)O.CC/C=C\C/C=C\C/C=C\C/C=C\C/C=C\C/C=C\CCC(=O)O.CN(C)CCC[Si](C)(C)O[Si]1(O[Si](C)(C)CCCN(C)C)n2c3c4ccccc4c2N=C2N=C(N=c4c5ccccc5c(n41)=NC1=NC(=N3)c3ccccc31)c1ccccc12 [Pc 292, SiPc[OSi(CH3)2(CH2)3NH(CH3)2]2^2+ [OC(O)CH2(CH2CH═CH)6CH2CH3]2^−] | soluble in ethanol, CH2Cl2 and dimethylformamide, moderately soluble in toluene, and insoluble in hexanes | 0 | 20% | 21% | 22% | 22% | – | –
2 | C=C[Si](C=C)(C=C)O[Si]1(O[Si](C=C)(C=C)C=C)n2c3c4ccccc4c2N=C2N=C(N=c4c5ccccc5c(n41)=NC1=NC(=N3)c3ccccc31)c1ccccc12 [Pc 279, SiPc[OSi(CH═CH2)3]2] | soluble in CH2Cl2, dimethylformamide, pyridine and toluene, and insoluble in hexanes and methanol | 0 | 0% | 0% | 0% | 0% | quite stable, remaining unchanged during 8 hours of irradiation | –
3 | SiPc[O(CH2)4CH3]2 [Pc 307] | soluble in CH2Cl2, dimethylformamide, pyridine and toluene, and insoluble in hexanes and methanol | 0 | 23% | 55% | 80% | 90% | – | stable in the dark
4 | CCCCC/C=C\C/C=C\C/C=C\C/C=C\CCCC(=O)O.CCCCC/C=C\C/C=C\C/C=C\C/C=C\CCCC(=O)O.CN(C)CCC[Si](C)(C)O[Si]1(O[Si](C)(C)CCCN(C)C)n2c3c4ccccc4c2N=C2N=C(N=c4c5ccccc5c(n41)=NC1=NC(=N3)c3ccccc31)c1ccccc12 [Pc 291, SiPc[OSi(CH3)2(CH2)3NH(CH3)2]2^2+ [OC(O)(CH2)2(CH2CH═CH)4(CH2)4CH3]2] | soluble in ethanol, CH2Cl2 and dimethylformamide, moderately soluble in toluene, and insoluble in hexanes | 0 | 18% | 19% | 20% | 20% | – | –
5 | SiPc[OC(O)(CH2)6(CH2CH═CH)2(CH2)4CH3]2 [Pc 296] | soluble in CH2Cl2, dimethylformamide, pyridine and toluene, slightly soluble in hexanes, and insoluble in methanol | 0 | 2% | 3% | 4% | 5% | – | –
6 | SiPc[OC(O)(CH2)2(CH2CH═CH)4(CH2)4CH3]2 [Pc 299] | soluble in CH2Cl2, dimethylformamide, pyridine and toluene, slightly soluble in hexanes, and insoluble in methanol | 0 | 7% and 12% | 12% and 21% | 14% and 27% | 17% and 33% | – | –
